The values below come from US10065990B2, “Cyclic peptide compound, and preparation method, pharmaceutical composition and use thereof” (HANGZHOU GUANYU BIO-MEDICAL CO., LTD, priority 2013, dated 2018).

Like-named read-outs stand apart in the source and are kept apart here.

For assay [1], the target named is T1, HDAC8 (Homo sapiens, UniProt Q9BY41).
T1 sequence (Q9BY41 1-377): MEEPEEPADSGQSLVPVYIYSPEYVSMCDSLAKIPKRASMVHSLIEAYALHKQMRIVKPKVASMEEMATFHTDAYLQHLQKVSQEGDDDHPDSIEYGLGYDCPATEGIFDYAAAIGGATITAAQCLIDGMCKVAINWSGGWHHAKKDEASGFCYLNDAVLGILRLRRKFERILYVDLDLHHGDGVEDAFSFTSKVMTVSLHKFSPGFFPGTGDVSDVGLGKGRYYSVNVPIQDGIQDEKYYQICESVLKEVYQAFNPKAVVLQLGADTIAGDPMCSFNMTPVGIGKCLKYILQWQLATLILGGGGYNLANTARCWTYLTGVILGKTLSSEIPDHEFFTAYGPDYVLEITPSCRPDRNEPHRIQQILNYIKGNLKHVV
As to the kind of experiment: HDAC biochemical activity measurement (fluorescent substrate deacetylation). The settings on record: 37° C. 30 minutes.

Assay [2] concerns BGC-823 (human gastric cancer cells). As to the kind of experiment: MTT cancer cell growth inhibition. The settings on record: MTT, 72 hours incubation, read-out: GI50 BG. Format: cell-based. The method, boiled down:
(§1)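 Using a 72 h MTT format, triplicate wells of 1500 cells received compound concentrations from 10^−5 to 10^−10 M. Formazan was read at 570 nm after DMSO dissolution, and GI50 was derived from viability.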

Assay [3] deals with Bel-7402 (human hepatoma cells). As to the kind of experiment: MTT cancer cell growth inhibition. Format: cell-based. To be noted: MTT, 72 hours incubation, Bel-7402 cells, read-out: GI50 Bel-7402. In outline:
as §1

Assay [4] deals with DU145 (human prostate cancer cells). As to the kind of experiment: MTT cancer cell growth inhibition. Format: cell-based. The settings on record: MTT, 72 hours incubation, read-out: GI50 Du1. In outline: as §1
The subject of assay [5] is H1975 (non-small cell lung adenocarcinoma). As to the kind of experiment: MTT cancer cell growth inhibition. The settings on record: MTT, 72 hours incubation, H1975 cells, read-out: GI50 H1975. Format: cell-based. In outline: as §1
For assay [6], the system named is HCC827 (human non-small cell lung cancer cells). As to the kind of experiment: MTT cancer cell growth inhibition. Format: cell-based. The settings on record: MTT, 72 hours incubation, HCC827 cells, read-out: GI50 HCC827. In outline: as §1
Assay [7] has as its system HT1080 (human fibrosarcoma cells). As to the kind of experiment: MTT cancer cell growth inhibition. The class given is cell-based. The settings on record: MTT, 72 hours incubation, read-out: GI50 HT1. The method, boiled down:
as §1

Assay [8] has as its system Hela (human cervical cancer cells). As to the kind of experiment: MTT cancer cell growth inhibition. The settings on record: MTT, 72 hours incubation, read-out: GI50 Hela. Format: cell-based. The method, boiled down:
as §1

The test system of assay [9] is K562 (human leukemia cells). As to the kind of experiment: MTT cancer cell growth inhibition. The class given is cell-based. To be noted: MTT, 72 hours incubation, K562 cells, read-out: GI50 K562. The method, boiled down: as §1
Assay [10] concerns KBM-5 (human chronic myelogenous leukemia). As to the kind of experiment: MTT cancer cell growth inhibition. The class given is cell-based. To be noted: MTT, 72 hours incubation, KBM-5 cells, read-out: GI50 KBM-5. The method, boiled down: as §1
For assay [11], the system named is N-87 (human gastric cancer cells). As to the kind of experiment: MTT cancer cell growth inhibition. The class given is cell-based. The settings on record: MTT, 72 hours incubation, N-87 cells, read-out: GI50 N-87. In outline: as §1
In assay [12] the test system is U937 (human leukemia cells). As to the kind of experiment: MTT cancer cell growth inhibition. Format: cell-based. The settings on record: MTT, 72 hours incubation, read-out: GI50 U93. The method, boiled down:
as §1

Assay [13] deals with HDAC3 (Homo sapiens, UniProt O15379). As to the kind of experiment: HDAC biochemical activity measurement (fluorescent substrate deacetylation).
Chain of HDAC3 (O15379 whole entry, species assumed): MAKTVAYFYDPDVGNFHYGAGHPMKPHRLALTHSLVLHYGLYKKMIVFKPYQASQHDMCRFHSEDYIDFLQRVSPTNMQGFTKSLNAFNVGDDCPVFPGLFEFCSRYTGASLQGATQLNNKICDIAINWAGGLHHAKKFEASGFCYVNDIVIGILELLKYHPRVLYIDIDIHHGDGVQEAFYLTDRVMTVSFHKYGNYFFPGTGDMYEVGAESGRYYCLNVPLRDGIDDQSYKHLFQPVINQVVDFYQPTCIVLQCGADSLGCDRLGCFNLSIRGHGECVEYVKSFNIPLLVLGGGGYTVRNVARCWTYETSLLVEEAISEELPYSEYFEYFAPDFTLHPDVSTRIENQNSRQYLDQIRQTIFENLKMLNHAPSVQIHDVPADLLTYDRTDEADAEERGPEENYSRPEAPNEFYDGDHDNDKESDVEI
Chain of HDAC3 (Q9Y618 395-489 partner limits assumed, species assumed): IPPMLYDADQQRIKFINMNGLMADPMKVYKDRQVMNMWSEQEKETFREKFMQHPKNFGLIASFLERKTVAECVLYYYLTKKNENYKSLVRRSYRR
Where [14] appears, read: read-out: IC50 HDAC3, HDAC3, 37° C. 30 minutes.

Take `C/C=C1\NC(=O)c2cc(F)cc(n2)CNC(=O)C[C@@H](/C=C/CCSC(=O)CC)OC(=O)[C@H](C(C)C)NC1=O` [Compound 46]: the half-inhibitory concentration (IC50) – broadly, the concentration that inhibits the measured activity by half – was 35 nM in assay [1] and 25 nM in [13] (setting [14]). The 50% growth inhibitory concentration (GI50) (in general, the concentration giving 50% growth inhibition) was 40 nM in assay [2] (Homo sapiens, BGC-823, 72 h); 52 nM in [3] (Homo sapiens, Bel-7402, 72 h); 30 nM in assay [4] (Homo sapiens, DU-145, 72 h); 37 nM in assay [5] (Homo sapiens, NCI-H1975, 72 h); 52 nM in assay [6] (Homo sapiens, HCC827, 72 h); 50 nM in [7] (Homo sapiens, HT-1080, 72 h). Also, the GI50 in assay [8] (Homo sapiens, HeLa, 72 h) worked out at 90 nM; in assay [9] (Homo sapiens, K562, 72 h), 35 nM; in assay [10] (Homo sapiens, KBM5, 72 h), 91 nM; in assay [11] (Homo sapiens, 72 h), 43 nM; in [12] (Homo sapiens, U-937, 72 h), 30 nM.

As to `C/C=C1\NC(=O)c2nc(ccc2F)CNC(=O)C[C@@H](/C=C/CCSC(C)=O)OC(=O)[C@H](CCCCN)NC1=O` [Compound 72], the half-inhibitory concentration (IC50) in assay [1] stood at 453 nM; in assay [13] (setting [14]), 135 nM. Besides, the GI50 in [2] (Homo sapiens, BGC-823, 72 h) came out at 60 nM; in assay [3] (Homo sapiens, Bel-7402, 72 h), 61 nM; in assay [4] (Homo sapiens, DU-145, 72 h) it was 30 nM; in assay [5] (Homo sapiens, NCI-H1975, 72 h), 34 nM; in assay [6] (Homo sapiens, HCC827, 72 h), 61 nM; in assay [7] (Homo sapiens, HT-1080, 72 h) it was 60 nM. Also, the concentration for 50% growth inhibition (GI50) came to 40 nM in assay [8] (Homo sapiens, HeLa, 72 h); 33 nM in assay [9] (Homo sapiens, K562, 72 h); 49 nM in [10] (Homo sapiens, KBM5, 72 h); 61 nM in assay [11] (Homo sapiens, 72 h); 30 nM in assay [12] (Homo sapiens, U-937, 72 h).

With `C/C=C1\NC(=O)c2cc(F)cc(n2)CCNC(=O)C[C@@H](/C=C/CCSC(C)=O)OC(=O)[C@H](C(C)C)NC1=O` [Compound 104], the results for the IC50 in assay [1] and in [13] were 19 nM and 43 nM, respectively. Further, the GI50 in assay [2] (Homo sapiens, BGC-823, 72 h) amounted to 10 nM; in assay [3] (Homo sapiens, Bel-7402, 72 h) it was 57 nM; in [4] (Homo sapiens, DU-145, 72 h) it was 40 nM; in assay [5] (Homo sapiens, NCI-H1975, 72 h), 38 nM; in assay [6] (Homo sapiens, HCC827, 72 h), 49 nM; in assay [7] (Homo sapiens, HT-1080, 72 h) it was 90 nM. Further, the 50% growth inhibitory concentration (GI50) turned out to be 30 nM in assay [8] (Homo sapiens, HeLa, 72 h); 33 nM in [9] (Homo sapiens, K562, 72 h); 79 nM in [10] (Homo sapiens, KBM5, 72 h); 96 nM in assay [11] (Homo sapiens, 72 h); 50 nM in [12] (Homo sapiens, U-937, 72 h).

`C/C=C1\NC(=O)c2nc(cc(SC)n2)CNC(=O)C[C@@H](/C=C/CCSC(C)=O)OC(=O)[C@H](C(C)C)NC1=O` [Compound 216]: the figures for the IC50 in [1] and in assay [13] (setting [14]) were 52 nM and 62 nM, respectively. In addition, the concentration for 50% growth inhibition (GI50) was 60 nM in [2] (BGC-823 cells); 23 nM in assay [3]; 20 nM in assay [4] (DU145 cells); 87 nM in assay [5]; 59 nM in [6]; 50 nM in assay [7] (HT1080 cells). Also, the GI50 in assay [8] (Hela cells) was found to be 70 nM; in assay [9] it was 56 nM; in assay [10], 38 nM; in [11] it was 37 nM; in assay [12] (U937 cells) it was 80 nM.

In the case of `C/C=C1\NC(=O)c2nc(ccc2SC)CNC(=O)C[C@@H](/C=C/CCSC=O)OC(=O)[C@H](C(C)C)NC1=O` [Compound 168], the half-inhibitory concentration (IC50) in assay [1] was 13 nM; in [13], 34 nM. For the same molecule, the GI50 in assay [2] (Homo sapiens, BGC-823, 72 h, BGC-823 cells) turned out to be 10 nM; in assay [3] (Homo sapiens, Bel-7402, 72 h), 44 nM; in assay [4] (Homo sapiens, DU-145, 72 h, DU145 cells) it was 50 nM; in assay [5] (Homo sapiens, NCI-H1975, 72 h) it was 66 nM; in assay [6] (Homo sapiens, HCC827, 72 h), 35 nM; in assay [7] (Homo sapiens, HT-1080, 72 h, HT1080 cells), 130 nM. The GI50 in [8] (Homo sapiens, HeLa, 72 h, Hela cells) is 50 nM; in assay [9] (Homo sapiens, K562, 72 h), 34 nM; in assay [10] (Homo sapiens, KBM5, 72 h), 22 nM; in assay [11] (Homo sapiens, 72 h) it was 94 nM; in assay [12] (Homo sapiens, U-937, 72 h, U937 cells), 40 nM.

As to `C/C=C1\NC(=O)c2cc(F)cc(n2)CNC(=O)C[C@@H](/C=C/CCSC(C)=O)OC(=O)[C@H](CC)NC1=O` [Compound 58], the IC50 was 51 nM in assay [1] and 29 nM in assay [13] (setting [14]). Also, the GI50 in assay [2] (Homo sapiens, BGC-823, 72 h) came out at 60 nM; in [3] (Homo sapiens, Bel-7402, 72 h), 49 nM; in assay [4] (Homo sapiens, DU-145, 72 h), 20 nM; in assay [5] (Homo sapiens, NCI-H1975, 72 h) it was 61 nM; in assay [6] (Homo sapiens, HCC827, 72 h) it was 49 nM; in assay [7] (Homo sapiens, HT-1080, 72 h), 40 nM. In addition, the GI50 in assay [8] (Homo sapiens, HeLa, 72 h) was 60 nM; in assay [9] (Homo sapiens, K562, 72 h), 26 nM; in assay [10] (Homo sapiens, KBM5, 72 h), 69 nM; in assay [11] (Homo sapiens, 72 h) it was 61 nM; in assay [12] (Homo sapiens, U-937, 72 h) it was 60 nM.

`C/C=C1\NC(=O)c2cc(SC)cc(n2)CNC(=O)C[C@@H](/C=C/CCSC(C)=O)OC(=O)[C@H](C(C)C)NC1=O` [Compound 224]: the results for the IC50 in [1] and in assay [13] (setting [14]) were 752 nM and 563 nM, respectively. For the same molecule, the concentration for 50% growth inhibition (GI50) in assay [2] (BGC-823 cells) was 30 nM; in assay [3], 23 nM; in assay [4] (DU145 cells), 50 nM; in [5] it was 96 nM; in assay [6], 52 nM; in [7] (HT1080 cells), 90 nM. In addition, the concentration for 50% growth inhibition (GI50) is 60 nM in [8] (Hela cells); 23 nM in [9]; 16 nM in [10]; 17 nM in assay [11]; 30 nM in assay [12] (U937 cells).
